According to patent US20260337253A1, “INHIBITION OF GUT BACTERIA” (priority 2025, published 2026):
Non-standard residues stand in square brackets, D forms with d. Residues, ends and D or L forms follow the SMILES beside them. *: point of attachment. boroGlu = O=C(O)CC[C@H](N*)B(O)O; Gly(cPr) = N[C@H](C(=O)O)C1CC1

Molecular target: His6-CylA-27-412 (Enterococcus faecalis, UniProt A0A2P6AWB8)
Assay: In vitro co-operative pore formation assay (pyranine-encapsulated DOPC liposomes, mCylLS:mCylLL)
Assay type: biochemical
Excerpt: In vitro pore formation assay for determining inhibitor effectiveness with high sensitivity. The assay uses pore formation as an indicator of toxin maturation. […] Pore formation dissipates a pH gradient between the interior of the liposome and the surrounding buffer increasing pyranine fluorescence.
Within the liposomes was a buffer of lower pH (6.0), and therefore any pore formation or membrane disruption would result in an increase in internal pH, which increases the fluorescence signal of the pyranine. In this way, pyranine fluorescence can be correlated to toxin activation allowing for the determination of EC50 values.
To a well in a black 96-well plate (200 μL) was added 90 μL high pH buffer (5 mM MES, 5 mM Tricine, 5 mM NaCl, pH 7.4) containing CylA (4 nM final concentration). After adding inhibitor, the mixture was incubated at room temperature for 10 min then freshly prepared (no more than 2 days old) pyranine encapsulated DOPC liposomes were added such that the total DOPC concentration was 80 μM. […] The resulting curves were max-min normalized yielding the fraction of permeabilized liposomes. […] This experiment was performed in duplicate or triplicate for each inhibitor at each concentration. […] Errors presented are those calculated by Origin 7 during the fitting process.

Sequence of His6-CylA-27-412 (A0A2P6AWB8 entry or part of it): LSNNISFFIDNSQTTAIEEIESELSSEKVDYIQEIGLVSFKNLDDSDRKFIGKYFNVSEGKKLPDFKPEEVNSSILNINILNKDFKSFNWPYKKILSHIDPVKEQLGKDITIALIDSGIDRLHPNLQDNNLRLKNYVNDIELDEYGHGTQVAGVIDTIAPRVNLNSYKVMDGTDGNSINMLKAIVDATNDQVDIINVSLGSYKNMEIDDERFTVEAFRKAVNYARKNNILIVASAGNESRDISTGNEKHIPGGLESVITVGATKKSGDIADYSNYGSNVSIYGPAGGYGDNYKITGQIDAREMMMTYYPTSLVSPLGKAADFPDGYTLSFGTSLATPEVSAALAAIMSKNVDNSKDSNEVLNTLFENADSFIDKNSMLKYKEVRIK

In the case of `CC(=O)NCC(=O)N[C@@H](CC(=O)O)C(=O)N[C@H](C(=O)N[C@@H](CCC(N)=O)C(=O)N[C@@H](C)C(=O)N[C@@H](CCC(=O)O)B(O)O)C1CC1` [Compound 9, Ac-Gly-Asp-Cpg-Gln-Ala-Glu-BA] (Ac-GD[Gly(cPr)]QA-boroGlu), the EC50 is reported as 12.5 ± 1.4 nM.
